Assay results published in US20210238162A1, “CHEMICAL COMPOUNDS” (GlaxoSmithKline Intellectual Property Development Limited, priority 2015, published 2021).
Where a name gives a salt, the structure may show the parent alone.

Target: T1, haematopoietic prostaglandin D synthase (H-PGDS) (Homo sapiens, UniProt O60760)
T1 construct: Full length human H-PGDS cDNA (Invitrogen Ultimate ORF IOH13026) was amplified by PCR; made in house; host or cells: E. coli BL21 (DE3*), vector pET22b+
Experiment: H-PGDS RapidFire High Throughput Mass Spectrometry Assay
Type: biochemical
Settings: H-PGDS RapidFire MS assay, mean pIC50; read-out: Potency Range (mean pIC50) (converted)
Method: The H-PGDS RapidFire™ mass spectrometric assay monitors conversion of prostaglandin H2 (PGH2) to prostaglandin D2 (PGD2) by haematopoietic prostaglandin D synthase (H-PGDS). In the assay format described here, the substrate (PGH2) is formed in situ by the action of cyclooxygenase-2 on arachidonic acid. This first step is set up to be fast, and generates a burst of PGH2 at ˜10 μM. The PGH2 is then further converted to PGD2 by the H-PGDS enzyme. […] Plates are then read on the RapidFire™ high throughput solid phase extraction system (Agilent) which incorporates a solid phase extraction step coupled to a triple quadrupole mass spectrometer (AB SCIEX). Relative levels of PGD2 and PGF2α, which acts as a surrogate for substrate, are measured and a percent conversion calculated.
Full length human H-PGDS cDNA (Invitrogen Ultimate ORF IOH13026) was amplified by PCR with the addition of a 5′ 6-His tag and TEV protease cleavage site. The PCR product was digested with Ndel and Xhol and ligated into pET22b+ (Merck Novagen®). Expression was carried out in E. coli strain BL21 (DE3*) using auto-induction Overnight Express™ Instant TB medium (Merck Novagen®) supplemented with 1% glycerol. The culture was first grown at 37° C. and the temperature was reduced to 25° C. when OD600 reached 2.0. Cells were harvested by centrifugation after a further 18 hr. 10 g of E. coli cell pellet was suspended to a total volume of 80 mL in lysis buffer (20 mM Tris-Cl pH 7.5, 300 mM NaCl, 20 mM imidazole, 5 mM β-mercaptoethanol, 10% glycerol). 1 mg/mL protease inhibitors (Protease Inhibitor Cocktail Set Ill, Merck Calbiochem®) and 1 mg/mL lysozyme were added to the cell suspension. The suspension was then sonicated for 5 min (UltraSonic Processor VCX 750, Cole-Parmer Instrument Co.) with a micro probe (50% amplitude, 10 sec on/off) and then centrifuged at 100,000 g for 90 min (at 4° C.). The supernatant was loaded onto a Ni-NTA HiTrap column (5 mL, GE Heathcare, pre-equilibrated in lysis buffer). The column was washed with 10 column volumes of lysis buffer and eluted with lysis buffer containing 500 mM imidazole. The pooled protein peak fractions were concentrated using a 10 kDa centrifugal filter at 3500 g and 4° C. (Amicon Ultra-15 centrifugal filter unit with Ultracel-10 membrane from Millipore). Further purification of the concentrated protein was carried out using gel filtration chromatography on a HiLoad 26/600 Superdex 75 preparative grade column (GE Healthcare Life Sciences) using 50 mM Tris pH 7.5, 50 mM NaCl, 1 mM dithiothreitol, 1 mM MgCl2. Fractions containing the protein were pooled, concentrated as described above, and stored at −80° C.
The full length human COX-2 gene (accession number L15326) was amplified by PCR to generate an EcoRI-HindIII fragment containing an in-frame FLAG tag. This was subcloned into pFastBac 1 (Invitrogen). The COX2 FLAG plasmid was recombined into the baculovirus genome according to the BAC-to-BAC protocol described by Invitrogen. Transfection into Spodoptera frugiperda (Sf9) insect cells was performed using Cellfectin (Invitrogen), according to the manufacturer's protocol. […] Recombinant virus was added at a Multiplicity of Infection (MOI) of 5 and the culture was allowed to continue for 3 days. Cells were harvested using a continuous feed centrifuge run at 2500 g at a rate of approximately 2 L/min with cooling. The resultant cell slurry was re-centrifuged in pots (2500 g, 20 min, 4° C.) and the cell paste was stored at −80° C. […] The suspension was sonicated in 500 mL batches for 8×5 seconds at 10 u amplitude with the medium tip of an MSE probe sonicator and subsequently incubated at 4° C. for 90 min with gentle stirring. The lysate was centrifuged at 12000 rpm for 45 min at 4° C. in a Sorvall SLA1500 rotor. The supernatant (1400 mL) was added to 420 mL of 20 mM Tris-Cl pH 7.4, 150 mM NaCl, 0.1 mM EDTA to reduce the concentration of n-octyl-β-D-glucopyranoside to 1% w/v.

T1 sequence (O60760 whole entry): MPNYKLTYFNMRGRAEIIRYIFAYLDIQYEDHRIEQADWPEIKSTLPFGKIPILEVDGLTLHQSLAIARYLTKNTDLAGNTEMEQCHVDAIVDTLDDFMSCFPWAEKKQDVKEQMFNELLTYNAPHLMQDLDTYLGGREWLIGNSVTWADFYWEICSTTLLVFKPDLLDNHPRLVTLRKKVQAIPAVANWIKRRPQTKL

| SMILES | IC50 [nM] |
| --- | --- |
| CC(C)(F)c1cc2ncc(C(=O)N[C@H]3CC[C@H](C(C)(C)O)CC3)cc2cc1Cl [Example 230, 6-Chloro-7-(2-fluoropropan-2-yl)-N-((trans)-4-(2-hydroxypropan-2-yl)cyclohexyl)quinoline-3-carboxamide] | < 10 |
| O=C(N[C@H]1CC[C@@H](N2CC(F)C2)CC1)c1cnc2cc(OC(F)F)c(F)cc2c1 [Example 89, 7-(Difluoromethoxy)-6-fluoro-N-(cis-4-(3-fluoroazetidin-1-yl)cyclohexyl)quinoline-3-carboxamide] | 100 to 1000 |
| Cn1nnnc1N1CCC(NC(=O)c2cnc3cc(Br)c(Cl)cc3c2)CC1 [Example 27, 7-Bromo-6-chloro-N-(1-(1-methyl-1H-tetrazol-5-yl)piperidin-4-yl)quinoline-3-carboxamide] | 10 to 79.4 |
| CCOC(=O)c1cnc(N[C@H]2C[C@H](NC(=O)c3cnc4cc(OC(F)F)c(F)cc4c3)C2)o1 [Example 83, Ethyl 2-((trans-3-(7-(difluoromethoxy)-6-fluoroquinoline-3-carboxamido)cyclobutyl)amino)oxazole-5-carboxylate] | 10 to 79.4 |
| CC(C)(O)[C@H]1CC[C@H](NC(=O)c2cnc3cc(OC(F)F)c(Cl)cc3c2)CC1 [Example 116, (6-Chloro-7-(difluoromethoxy)-N-(trans-4-(2-hydroxypropan-2-yl)cyclohexyl)quinoline-3-carboxamide, trifluoroacetate] | < 10 |
| O=C1CC(NC(=O)c2cnc3cc(OC(F)F)ccc3c2)c2ccccc2N1 (stereo not shown) [Example 9, 7-(Difluoromethoxy)-N-(2-oxo-1,2,3,4-tetrahydroquinolin-4-yl)quinoline-3-carboxamide] | 10 to 79.4 |
| O=C(N[C@H]1CC[C@H](N2CC(F)C2)CC1)c1cnc2cc(OC(F)F)c(Cl)cc2c1 [Example 132, 6-Chloro-7-(difluoromethoxy)-N-(trans-4-(3-fluoroazetidin-1-yl)cyclohexyl)quinoline-3-carboxamide] | < 10 |
| C[C@@H](NC[C@H]1CC[C@H](NC(=O)c2cnc3cc(OC(F)F)c(F)cc3c2)CC1)C(F)F [Example 99, 7-(Difluoromethoxy)-N-(trans-4-((((R)-1,1-difluoropropan-2-yl)amino)methyl)cyclohexyl)-6-fluoroquinoline-3-carboxamide] | 10 to 79.4 |
| C[C@@H](N[C@H]1CC[C@H](NC(=O)c2cnc3cc(OC(F)F)c(F)cc3c2)CC1)C(F)F [Example 69, 7-(Difluoromethoxy)-N-(trans-4-(((R)-1,1-difluoropropan-2-yl)amino)cyclohexyl)-6-fluoroquinoline-3-carboxamide] | 10 to 79.4 |
| CCOC(=O)c1cnc(N2CC[C@H](NC(=O)c3cnc4cc(OC(F)F)c(F)cc4c3)C2)o1 [Example 80, (S)-Ethyl 2-(3-(7-(difluoromethoxy)-6-fluoroquinoline-3-carboxamido)pyrrolidin-1-yl)oxazole-5-carboxylate trifluoroacetic acid salt] | 10 to 79.4 |
| O=C(N[C@H]1CC[C@H](N2CC(F)C2)CC1)c1cnc2cc(OC(F)F)c(F)cc2c1 [Example 90, 7-(Difluoromethoxy)-6-fluoro-N-(trans-4-(3-fluoroazetidin-1-yl)cyclohexyl)quinoline-3-carboxamide] | 10 to 79.4 |
| O=C1CC(NC(=O)c2cnc3cc(OC(F)F)c(Cl)cc3c2)C1 [Example 142, 6-Chloro-7-(difluoromethoxy)-N-(3-oxocyclobutyl)quinoline-3-carboxamide] | 10 to 79.4 |
| O=C(N[C@H]1CC[C@@H](N2CC(O)(C(F)(F)F)C2)CC1)c1cnc2cc(OC(F)F)c(F)cc2c1 [Example 91, 7-(Difluoromethoxy)-6-fluoro-N-(cis-4-(3-hydroxy-3-(trifluoromethyl)azetidin-1-yl)cyclohexyl)quinoline-3-carboxamide] | 100 to 1000 |
| CC(=O)c1cc2ncc(C(=O)N[C@H]3CC[C@H](C(C)(C)O)CC3)cc2cc1Cl [Example 172, 7-Acetyl-6-chloro-N-(trans-4-(2-hydroxypropan-2-yl)cyclohexyl)quinoline-3-carboxamide] | < 10 |
| O=C(N[C@H]1CC[C@H](N[C@@H](CO)C(F)(F)F)CC1)c1cnc2cc(OC(F)F)c(F)cc2c1 [Example 85, 7-(Difluoromethoxy)-6-fluoro-N-(trans-4-(((S)-1,1,1-trifluoro-3-hydroxypropan-2-yl)amino)cyclohexyl)quinoline-3-carboxamide] | 10 to 79.4 |
| O=C(N[C@H]1CC[C@H](N[C@H](CO)C(F)(F)F)CC1)c1cnc2cc(OC(F)F)c(F)cc2c1 [Example 77, 7-(Difluoromethoxy)-6-fluoro-N-(trans-4-(((R)-1,1,1-trifluoro-3-hydroxypropan-2-yl)amino)cyclohexyl)quinoline-3-carboxamide] | 10 to 79.4 |
| CC(C)(O)[C@H]1CC[C@H](NC(=O)c2cnc3c(Cl)c(OC(F)F)ccc3c2)CC1 [Example 216, 8-Chloro-7-(difluoromethoxy)-N-((trans)-4-(2-hydroxypropan-2-yl)cyclohexyl)quinoline-3-carboxamide] | 10 to 79.4 |
| CCc1cccc2cc(C(=O)Nc3nccs3)cnc12 [Example 105, 8-Ethyl-N-(thiazol-2-yl)quinoline-3-carboxamide] | 100 to 1000 |
| C[C@H](N[C@H]1CC[C@H](NC(=O)c2cnc3cc(OC(F)F)c(Cl)cc3c2)CC1)C(F)F [Example 130, 6-Chloro-7-(difluoromethoxy)-N-(trans-4-(((S)-1,1-difluoropropan-2-yl)amino)cyclohexyl)quinoline-3-carboxamide] | < 10 |
| CC(C)C(O)CO[C@H]1CC[C@H](NC(=O)c2cnc3cc(OC(F)F)c(Cl)cc3c2)CC1 (stereo partly drawn) [Example 127, 6-Chloro-7-(difluoromethoxy)-N-(trans-4-(2-hydroxy-3-methylbutoxy)cyclohexyl)quinoline-3-carboxamide] | < 10 |
| CC(C)(O)CO[C@H]1CC[C@H](NC(=O)c2cnc3cc(OC(F)F)c(Cl)cc3c2)CC1 [Example 122, 6-Chloro-7-(difluoromethoxy)-N-(trans-4-(2-hydroxy-2-methylpropoxy)cyclohexyl)quinoline-3-carboxamide] | < 10 |
| N#C[C@H]1CC[C@H](NC(=O)c2cnc3cc(OC(F)F)c(F)cc3c2)CC1 [Example 87, N-(trans-4-Cyanocyclohexyl)-7-(difluoromethoxy)-6-fluoroquinoline-3-carboxamide] | 10 to 79.4 |
| O=C(N[C@H]1CC[C@H](C2(O)CC2)CC1)c1cnc2cc(OC(F)F)c(Cl)cc2c1 [Example 121, 6-Chloro-7-(difluoromethoxy)-N-(trans-4-(1-hydroxycyclopropyl)cyclohexyl)quinoline-3-carboxamide] | < 10 |
| O=C(N[C@H]1CC[C@H](C(O)C(F)(F)F)CC1)c1cnc2cc(OC(F)F)ccc2c1 (stereo partly drawn) [Example 15, 7-(Difluoromethoxy)-N-(trans-4-(2,2,2-trifluoro-1-hydroxyethyl)cyclohexyl)quinoline-3-carboxamide] | < 10 |
| C[C@@H]1CNC(=O)[C@H]1NC(=O)c1cnc2cc(OC(F)F)c(Cl)cc2c1 [Example 144, 6-Chloro-7-(difluoromethoxy)-N-((3S,4R)-4-methy-2-oxopyrrolidin-3-yl)quinoline-3-carboxamide] | < 10 |

Same assay, conditions: in at least one experimental run; read-out: H-PGDS pIC50 value (converted)

| SMILES | IC50 [nM] |
| --- | --- |
| CC(C)(O)[C@H]1CC[C@H](NC(=O)c2cnc3cc(OC(F)F)c(Cl)cc3c2)CC1 [Example 116, (6-Chloro-7-(difluoromethoxy)-N-(trans-4-(2-hydroxypropan-2-yl)cyclohexyl)quinoline-3-carboxamide, trifluoroacetate] | 2.51 |
| O=C1CC(NC(=O)c2cnc3cc(OC(F)F)c(Cl)cc3c2)C1 [Example 142, 6-Chloro-7-(difluoromethoxy)-N-(3-oxocyclobutyl)quinoline-3-carboxamide] | 39.8 |
| O=C(N[C@H]1CC[C@H](C(O)C(F)(F)F)CC1)c1cnc2cc(OC(F)F)ccc2c1 (stereo partly drawn) [Example 15, 7-(Difluoromethoxy)-N-(trans-4-(2,2,2-trifluoro-1-hydroxyethyl)cyclohexyl)quinoline-3-carboxamide] | 7.94 |
